The values below come from patent US10294236B2, “Compounds as rearranged during transfection (RET) inhibitors” (GLAXOSMITHKLINE INTELLECTUAL PROPERTY DEVELOPMENT LIMITED, priority 2014, dated 2019).

The structures appear in SMILES notation. Counter-ions that a name gives are not always drawn.

The target in this experiment is T1, Human RET kinase cytoplasmic domain (Homo sapiens, UniProt P07949).
T1 construct: made in house
T1 sequence (P07949 658-1114): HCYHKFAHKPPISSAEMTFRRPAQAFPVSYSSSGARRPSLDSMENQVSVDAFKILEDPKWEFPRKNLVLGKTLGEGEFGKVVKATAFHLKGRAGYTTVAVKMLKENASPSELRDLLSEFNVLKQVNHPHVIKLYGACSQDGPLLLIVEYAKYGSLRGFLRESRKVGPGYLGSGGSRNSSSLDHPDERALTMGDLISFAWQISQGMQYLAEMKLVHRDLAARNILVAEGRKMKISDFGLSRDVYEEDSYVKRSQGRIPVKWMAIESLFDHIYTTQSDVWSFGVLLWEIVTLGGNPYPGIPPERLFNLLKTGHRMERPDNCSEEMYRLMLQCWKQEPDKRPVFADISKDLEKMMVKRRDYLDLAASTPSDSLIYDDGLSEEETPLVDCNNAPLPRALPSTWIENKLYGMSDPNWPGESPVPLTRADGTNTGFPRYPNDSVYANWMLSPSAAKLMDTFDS
The experiment can be described thus: RET kinase enzymatic assay. In kind it is biochemical. The procedure, abridged: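 GST-RET, 0.2 nM in 2× enzyme mix (HEPES, CHAPS, BSA, DTT), preincubated with inhibitor 30 min at 23 °C. Reaction for 1 h at 23 °C after adding 2× substrate mix: 20 μM ATP, 20 mM MgCl2, 1 μM biotinylated peptide. Single wells per concentration; IC50 from sigmoidal dose-response fit.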

By IC50 is commonly meant the concentration that gives 50% inhibition. The molecule `CCOc1cc(=O)[nH]cc1-c1ncc(NC(=O)Nc2ccc(Cl)c(C(F)(F)F)c2)c(C)n1` [Example 54, 1-(4-Chloro-3-(trifluoromethyl)phenyl)-3-(2-(4-ethoxy-6-oxo-1,6-dihydropyridin-3-yl)-4-methylpyrimidin-5-yl)urea] gave an IC50 of less than 100 nM. Then `CCOc1cc(=O)[nH]cc1-c1ncc(NC(=O)Nc2ccc(CN(C)C)c(C(F)(F)F)c2)c(C)n1` [Example 55, 1-(4-((Dimethylamino)methyl)-3-(trifluoromethyl)phenyl)-3-(2-(4-ethoxy-6-oxo-1,6-dihydropyridin-3-yl)-4-methylpyrimidin-5-yl)urea], with less than 100 nM. Then `CCOc1cc(-c2ncc(NC(=O)Nc3cc(-n4cnc(C)c4)cc(C(F)(F)F)c3)c(CC)n2)c[nH]c1=O` [Example 56, 1-(2-(5-Ethoxy-6-oxo-1,6-dihydropyridin-3-yl)-4-ethylpyrimidin-5-yl)-3-(3-(4-methyl-1H-imidazol-1-yl)-5-(trifluoromethyl)phenyl)urea], with less than 100 nM; and `CCOc1cc(-c2ncc(NC(=O)Nc3cc(-n4cnc(C)c4)cc(C(F)(F)F)c3)c(C)n2)c[nH]c1=O` [Example 57, 1-(2-(5-Ethoxy-6-oxo-1,6-dihydropyridin-3-yl)-4-methylpyrimidin-5-yl)-3-(3-(4-methyl-1H-imidazol-1-yl)-5-(trifluoromethyl)phenyl)urea], with less than 100 nM. Then `CCOc1cc(-c2ncc(NC(=O)Nc3ccc(CN(C)C)c(C(F)(F)F)c3)c(C)n2)c[nH]c1=O` [Example 58, 1-(4-((Dimethylamino)methyl)-3-(trifluoromethyl)phenyl)-3-(2-(5-ethoxy-6-oxo-1,6-dihydropyridin-3-yl)-4-methylpyrimidin-5-yl)urea], with less than 100 nM.

The molecule `CCOc1cc(-c2nc(C)c(NC(=O)Nc3ccc(CN(C)C)c(C(F)(F)F)c3)c(C)n2)c[nH]c1=O` [Example 59, 1-(4-((Dimethylamino)methyl)-3-(trifluoromethyl)phenyl)-3-(2-(5-ethoxy-6-oxo-1,6-dihydropyridin-3-yl)-4,6-dimethylpyrimidin-5-yl)urea] had an IC50 of less than 100 nM.

For `CCOc1cc(-c2ncc(NC(=O)Nc3ccc(Cl)c(C(F)(F)F)c3)c(C)n2)c[nH]c1=O` [Example 60, 1-(4-Chloro-3-(trifluoromethyl)phenyl)-3-(2-(5-ethoxy-6-oxo-1,6-dihydropyridin-3-yl)-4-methylpyrimidin-5-yl)urea], the IC50 was less than 100 nM. To `CCOc1cc(=O)[nH]cc1-c1ncc(NC(=O)Nc2ccc(C(C)(C)C(N)=O)c(C(F)(F)F)c2)c(C)n1` [Example 61, 2-(4-(3-(2-(4-Ethoxy-6-oxo-1,6-dihydropyridin-3-yl)-4-methylpyrimidin-5-yl)ureido)-2-(trifluoromethyl)phenyl)-2-methylpropanamide] belongs less than 100 nM. To `CCOc1cc(-c2cnc(NC(=O)Nc3ccc(OC4(C)COC4)c(C(F)(F)F)c3)cc2C)c[nH]c1=O` [Example 62, 1-(5′-Ethoxy-4-methyl-6′-oxo-1′,6′-dihydro-[3,3′-bipyridin]-6-yl)-3-(4-((3-methyloxetan-3-yl)oxy)-3-(trifluoromethyl)phenyl)urea] belongs less than 100 nM; to `CCOc1cc(-c2ncc(NC(=O)Nc3ccc(C(C)(C)C(N)=O)c(C(F)(F)F)c3)c(C)n2)c[nH]c1=O` [Example 63, 2-(4-(3-(2-(5-Ethoxy-6-oxo-1,6-dihydropyridin-3-yl)-4-methylpyrimidin-5-yl)ureido)-2-(trifluoromethyl)phenyl)-2-methylpropanamide], less than 100 nM.

`CCOc1cc(-c2ccc(NC(=O)Nc3ccc(CC(C)(C)CO)c(C(F)(F)F)c3)c(F)c2)c[nH]c1=O` [Example 64, 1-(4-(5-Ethoxy-6-oxo-1,6-dihydropyridin-3-yl)-2-fluorophenyl)-3-(4-(3-hydroxy-2,2-dimethylpropyl)-3-(trifluoromethyl)phenyl)urea] yielded an IC50 of less than 100 nM. The molecule `CCOc1cc(-c2ncc(NC(=O)Nc3ccc(C4(CO)CC4)c(C(F)(F)F)c3)c(C)n2)c[nH]c1=O` [Example 66, 1-(2-(5-Ethoxy-6-oxo-1,6-dihydropyridin-3-yl)-4-methylpyrimidin-5-yl)-3-(4-(1-(hydroxymethyl)cyclopropyl)-3-(trifluoromethyl)phenyl)urea hydrochloride] came in with an IC50 of less than 100 nM. Molecule `CCOc1cc(=O)[nH]cc1-c1ncc(NC(=O)Nc2cc(-c3nnc(C)o3)cc(C(F)(F)F)c2)c(C)n1` [Example 67, 1-(2-(4-Ethoxy-6-oxo-1,6-dihydropyridin-3-yl)-4-methylpyrimidin-5-yl)-3-(3-(5-methyl-1,3,4-oxadiazol-2-yl)-5-(trifluoromethyl)phenyl)urea] showed an IC50 of less than 100 nM. To `CC(C)(C)c1cc(NC(=O)Nc2ccc(-c3ccc(=O)[nH]c3)cc2)n(-c2ccccc2)n1` [Example 68, 1-(3-(tert-Butyl)-1-phenyl-1H-pyrazol-5-yl)-3-(4-(6-oxo-1,6-dihydropyridin-3-yl)phenyl)urea] belongs less than 100 nM; to `CCOc1cc(-c2ncc(NC(=O)Nc3ccc(C(C)(C)CN)c(C(F)(F)F)c3)c(C)n2)c[nH]c1=O` [Example 70, 1-(4-(1-Amino-2-methylpropan-2-yl)-3-(trifluoromethyl)phenyl)-3-(2-(5-ethoxy-6-oxo-1,6-dihydropyridin-3-yl)-4-methylpyrimidin-5-yl)urea dihydrochloride], less than 100 nM.

In the case of `CCOc1cc(-c2ncc(NC(=O)Nc3ccc(C(C)(C)O)c(C(F)(F)F)c3)c(C)n2)c[nH]c1=O` [Example 71, 1-(2-(5-Ethoxy-6-oxo-1,6-dihydropyridin-3-yl)-4-methylpyrimidin-5-yl)-3-(4-(2-hydroxypropan-2-yl)-3-(trifluoromethyl)phenyl)urea], the IC50 was less than 100 nM. `CCOc1cc(-c2ccc(NC(=O)Nc3cc(-n4cncn4)cc(C(F)(F)F)c3)c(F)c2)c[nH]c1=O` [Example 72, 1-(3-(1H-1,2,4-Triazol-1-yl)-5-(trifluoromethyl)phenyl)-3-(4-(5-ethoxy-6-oxo-1,6-dihydropyridin-3-yl)-2-fluorophenyl)urea hydrochloride] returned an IC50 of less than 100 nM. Then `CCOc1cc(-c2ncc(NC(=O)Nc3ccc(C(C)(C)CN(C)C)c(C(F)(F)F)c3)c(C)n2)c[nH]c1=O` [Example 73, 1-(4-(1-(Dimethylamino)-2-methylpropan-2-yl)-3-(trifluoromethyl)phenyl)-3-(2-(5-ethoxy-6-oxo-1,6-dihydropyridin-3-yl)-4-methylpyrimidin-5-yl)urea dihydrochloride], with less than 100 nM. Then `CCOc1cc(-c2ncc(NC(=O)Nc3cc(OCCN(C)C)cc(C(F)(F)F)c3)c(C)n2)c[nH]c1=O` [Example 74, 1-(3-(2-(Dimethylamino)ethoxy)-5-(trifluoromethyl)phenyl)-3-(2-(5-ethoxy-6-oxo-1,6-dihydropyridin-3-yl)-4-methylpyrimidin-5-yl)urea dihydrochloride], with less than 100 nM. To `CC(C)(O)c1ccc(NC(=O)Nc2ccc(-c3c[nH]c(=O)c4ccccc34)cc2F)cc1C(F)(F)F` [Example 75] belongs less than 100 nM. In the case of `CCOc1cc(-c2ccc(NC(=O)Nc3ccc(CN(C)C)c(C(F)(F)F)c3)c(F)c2)c[nH]c1=O` [Example 76], the IC50 is less than 100 nM.

In turn, `CCOc1cc(-c2ccc(NC(=O)Nc3ccc(C4(CO)CC4)c(C(F)(F)F)c3)c(F)c2)c[nH]c1=O` [Example 77] displayed an IC50 of less than 100 nM.

`CCOc1cc(-c2ccc(NC(=O)Nc3cc(C(F)(F)F)ccc3F)c(F)c2)c[nH]c1=O` [Example 78] gave an IC50 of less than 100 nM. The molecule `CCOc1cc(-c2ccc(NC(=O)Nc3ccc(OC(C)(C)C)c(C(F)(F)F)c3)cc2)c[nH]c1=O` [Example 79] displayed an IC50 of less than 100 nM. Then `CCOc1ccc(NC(=O)Nc2ccc(-c3c[nH]c(=O)c(OCC)c3)cc2F)cc1C(F)(F)F` [Example 80], with less than 100 nM. Regarding `CCOc1cc(-c2ccc(NC(=O)Nc3ccc(CC(C)(C)C#N)c(C(F)(F)F)c3)c(F)c2)c[nH]c1=O` [Example 81], the IC50 was less than 100 nM.

In the case of `CCOc1cc(-c2ccc(NC(=O)Nc3ccc(OC(C)C)c(C(F)(F)F)c3)c(F)c2)c[nH]c1=O` [Example 82], the IC50 is less than 100 nM.

`CCOc1cc(-c2ccc(NC(=O)Nc3ccc(OC(C)(C)C#N)c(C(F)(F)F)c3)c(F)c2)c[nH]c1=O` [Example 83] came in with an IC50 of less than 100 nM.

On to `CCOc1cc(-c2ccc(NC(=O)Nc3ccc(OC4(C)CC(O)C4)c(C(F)(F)F)c3)c(F)c2)c[nH]c1=O` (centres unmarked) [Example 84], for which the IC50 was less than 100 nM. To `CCOc1cc(-c2ccc(NC(=O)Nc3ccc(OC4(C)CCN(C(C)C)C4)c(C(F)(F)F)c3)c(F)c2)c[nH]c1=O` (centres unmarked) [Example 85] belongs less than 100 nM; to `CCOc1cc(Oc2ccc(NC(=O)Nc3cc(C(F)(F)F)ccc3F)cc2)c[nH]c1=O` [Example 86], less than 100 nM.

In turn, `CCOc1cc(-c2ccc(NC(=O)Nc3ccc(OC4(C)COC4)c(C(F)(F)F)c3)c(Cl)n2)c[nH]c1=O` [Example 87] showed an IC50 of less than 100 nM. To `CCOc1cc(=O)[nH]cc1-c1ncc(NC(=O)Nc2ccc(C3(CO)CC3)c(C(F)(F)F)c2)c(C)n1` [Example 88] belongs less than 100 nM; to `CCOc1cc(-c2ccc(NC(=O)Nc3cnc(C(C)(C)O)c(C(F)(F)F)c3)c(F)c2)c[nH]c1=O` [Example 89], less than 100 nM; to `CCOc1cc(-c2cc(F)c(NC(=O)Nc3ccc(OC4(C)COC4)c(C(F)(F)F)c3)c(F)c2)c[nH]c1=O` [Example 90], less than 100 nM.
